Test results as given in patent US20230404887A1, “COMPOSITIONS TO LIMIT OR ELIMINATE THE PERCEPTION OF SWEAT MALODOR” (Firmenich SA, priority 2020, published 2023).

Legend:
[1] = Expert perfumer evaluation of malodor reduction, dynamic olfactometer, against 3H3MHA; set-up: species or system human; key to EXPERT RATING: −2: significant increase in malodor; −1: slight increase in malodor; 0: no effect; 1: slight malodor reduction; 2: good malodor reduction; 3: complete malodor reduction; conditions: for EFFECTIVE CONCENTRATION: MO 3H3MHA held fixed at mid-intensity (0.5), headspace concentration providing an effective level; for EXPERT RATING: MO 3H3MHA held fixed at mid-intensity (0.5 on scale 0-1), rating of degree of malodor reduction at the effective concentration
Protocol: The effectiveness of perfuming materials in compositions to reduce the perception of, for example, axillary sweat malodors, was evaluated by an expert perfumer by 1) selecting target axillary malodor components, 2) delivering target malodor components and candidate malodor reducing materials to the nose of an expert perfumer at carefully controlled concentrations, 3) having the expert perfumer identify the concentration at which malodor reduction was obtained, and 4) rating the degree of reduction achieved at the concentration identified in step 3. […] Two surprising results were be observed. The first is that not all tested materials yielded complete malodor reduction, often differing depending on which component they were tested against. […] Intensity and concentration were material-dependent and spanned a wide range of values on both axes. […] Thus, neither the required concentrations, nor performance ratings could be predicted a priori by one skilled in the art, yet are necessary and sufficient for designing malodor reducing compositions for use in perfuming products.
(§1) In this method, a dynamic multi-channel olfactometer was used to precisely deliver known gas phase concentrations of the test materials, using forced evaporation, into a stream of air emanating from a smelling port. The appropriate concentration of the malodor component was established prior to its being mixed with the candidate malodor reducing substance. The concentration was set at a concentration sufficient to produce an intensity of 0.5 (mid-intensity) on a scale of 0-1. The expert perfumer then dynamically adjusted the concentration of the candidate malodor reducing substance to determine the effective concentration, while maintaining a fixed concentration of the malodor component. Once the appropriate concentration had been determined, the expert perfumer evaluated the perception of the mixtures repeatedly over a period of several minutes, taking breaks in between sniffs to avoid adaptation to the components being tested, before providing a rating.
(§2) Tests were performed in a forced-evaporation, dynamic olfactometer, with malodor component concentrations held fixed at a mid-intensity. Ratings of effectiveness were based in the following scale: −2 (significant increase in malodor), −1 (slight increase in malodor), 0 (no effect), 1 (slight malodor reduction), 2 (good malodor reduction), 3 (complete malodor reduction). The malodor (MO) component abbreviations are 3H3MHA (3-methyl-3-hydroxyhexanoic acid), 3M2HA (3-methyl-2-hexenoic acid), 3M3SH (3-methyl-3-sulphanylhexanol).

[2] = Expert perfumer evaluation of malodor reduction, dynamic olfactometer, against 3M2HA; set-up: species or system human; conditions: for EFFECTIVE CONCENTRATION: MO 3M2HA held fixed at mid-intensity (0.5), headspace concentration providing an effective level; for EXPERT RATING: MO 3M2HA held fixed at mid-intensity (0.5 on scale 0-1), rating of degree of malodor reduction at the effective concentration
Protocol: (§3) The effectiveness of perfuming materials in compositions to reduce the perception of, for example, axillary sweat malodors, was evaluated by an expert perfumer by 1) selecting target axillary malodor components, 2) delivering target malodor components and candidate malodor reducing materials to the nose of an expert perfumer at carefully controlled concentrations, 3) having the expert perfumer identify the concentration at which malodor reduction was obtained, and 4) rating the degree of reduction achieved at the concentration identified in step 3.
as §1, §2

[3] = Expert perfumer evaluation of malodor reduction, dynamic olfactometer, against 3M3SH; set-up: species or system human; conditions: for EFFECTIVE CONCENTRATION: MO 3M3SH held fixed at mid-intensity (0.5), headspace concentration providing an effective level; for EXPERT RATING: MO 3M3SH held fixed at mid-intensity (0.5 on scale 0-1), rating of degree of malodor reduction at the effective concentration
Protocol: as §3, §1, §2

[4] = Naive panelist evaluation of malodor reduction at mid-intensity dosages, passive evaporation in jars, against 4MOA; set-up: species or system human; conditions: MO 4MOA dosage 7.5%, test compound dosage 1.5% in DiPG on cellulose pads; jar equilibrated 4 hours at room temperature; N 26 panelists
Protocol: The performance of fragrancing products was evaluated by non-expert consumers under passive evaporation conditions. This was achieved by: 1) selecting target axillary malodor components, 2) delivering target malodor components and candidate malodor reducing materials (separately) to the noses of naïve panelists at a range of dosages established under passive evaporation conditions 3) having the panelists evaluate the overall intensity of each presented sample, 4) determining the average mid-intensity concentration for both the malodors and malodor reducing candidates of interest, 5) delivering samples containing a malodor component and a malodor reducing candidate of interest mixed together at the dosages determined in step 4, along with separate control samples containing either alone or neither, to the noses of panelists, 6) having panelists evaluate the malodor intensity for each presented sample, and 7) determining the degree of malodor reduction produced by the candidate malodor reducing material by comparing the malodor intensity ratings of the mixture to those of the control samples. […]

Molecule	EFFECTIVE CONCENTRATION [1] [micrograms/L AIR]	EXPERT RATING [1]	EFFECTIVE CONCENTRATION [2] [micrograms/L AIR]	EXPERT RATING [2]	EFFECTIVE CONCENTRATION [3] [micrograms/L AIR]	EXPERT RATING [3]	Reduction (%) [4] [%]
Cc1ccc2c(c1)CC(C)(CO)C2 (racemic)	3.13E−02	3	4.70E−02	3	7.83E−02	3	
CCOC(=O)C12CCCC1C1CCC2C1 (stereo not shown) [ethyl tricyclo[5.2.1.0.(2,6)]decane-2-carboxylate]			1.07E−01	3			43
C=C1CCCC(C)(C)C1C(=O)OC (racemic) [(+−)-METHYL 2,2-DIMETHYL-6-METHYLIDENECYCLOHEXANECARBOXYLATE]	8.00E−01	3	4.00E−01	3	4.00E−01	2	
C/C=C/C(=O)C1C(C)=CCCC1(C)C (racemic)	1.08E−02	3	1.30E−02	2			
(+−)-(3E)-4-(2,6,6-trimethyl-1/2-cyclohexen-1-yl)-3-buten-2-one	2.00E−01	3	4.00E−01	3	8.00E−01	2	
C[C@@H]1C/C=C\CCCCCCCCCC(=O)C1 [(+)-(3R,5Z)-3-METHYL-5-CYCLOPENTADECEN-1-ONE]	5.50E−01	2	1.65E−01	2	2.75E−01	2	
CC(C)=CCCC(C)CC=O (racemic)	1.30E−01	3	1.30E−01	2			
C/C=C/c1ccc(OCC)c(O)c1 [(E)-2-ETHOXY-5-(1-PROPENYL)PHENOL]	4.50E−03	3	1.80E−02	3	4.50E−02	3	
1-(3,3/5,5-dimethyl-1-cyclohexen-1-yl)-4-penten-1-one	1.22E+00	3	2.53E−03	3	1.22E+00	3	
CC(=O)c1ccc2ccccc2c1	1.37E−02	3	1.37E−02	3	3.42E−02	2	
CC/C=C\CC/C=C/C=O [(2E,6Z)-2,6-NONADIENAL]	1.13E−03	3	2.83E−03	3	5.67E−04	3	
c1ccc(CCCc2ccccn2)cc1 [2-(3-PHENYLPROPYL)PYRIDINE]	1.43E−04	3	1.43E−04	3			
CCCCC[C@H]1C(=O)CC[C@@H]1CC(=O)OC (racemic) [METHYL 2-((1RS,2RS)-3-OXO-2-PENTYLCYCLOPENTYL)ACETATE]	5.73E−01	3	7.17E−01	2	7.17E−01	2	
CC/C=C(\C)C(O)CCCCC (racemic) [(+−)-(E)-4-METHYL-3-DECEN-5-OL]			2.13E−01	3	4.27E−01	3	
CCOC(=O)[C@@H]1[C@@H](C(C)C)[C@@H]2C=C[C@H]1C2 (racemic) [ETHYL 1RS,2SR,3SR,4SR-3-ISOPROPYLBICYCLO[2.2.1]HEPT-5-ENE-2-CARBOXYLATE]	1.03E+00	3	2.58E+00	2	2.07E+01	3	
